Experimental data from patent US12692322B2, “KRAS specific antibodies and uses thereof” (Genentech, Inc., priority 2020, dated 2026).

Assays:
[1] = test system: SWII pocket of KRas^G12C-GDP and KRas^WT-GDP; assay: SPR of SWII ligands with SWII-blocked reference, with and without 2H11; type: binding, human
Procedure: Surface plasmon resonance (SPR) experiments with 2H11 anti-KRas antibody. A series S SA (streptavidin) chip was inserted into a Biacore T200 (GE Health Sciences). The instrument was primed into running buffer (50 mM HEPES pH 7.5, 150 mM NaCl, 0.2% (w/v) PEG-3350, 0.1% CM-dextran (w/v), 0.1 mM TCEP, 10 mM MgCl2, 100 nM GDP, and 2% (v/v) DMSO). KRas^G12C was pre-blocked at the 12 position with covalent binding KRas^G12C alkylator was captured to yield 2000-2500 response units (RU) on flow channel 1 (FC1) and FC3 to serve as the reference for KRas^WT and KRas^G12C and allow affinity measurement exclusively at the Switch II (SWII) pocket. KRas^WT or KRas^G12C was captured on FC2 and FC4 within 100 RU of the reference channel capture level and data was collected in FC 2-1, FC 4-3 mode. […] Analyte samples were tested […] in 2-fold dose response with 20-30 second contact time and 30 second dissociation. Data was analyzed in with a 1:1 affinity model in Biacore S200 Evaluation Software 1.0 and figures were made in Scrubber 2 (Biologic Software) (FIG. 5A and FIG. 5B).

[2] = molecular target: T1, alkylated KRas^G12C in H1171 KRas^G12C cells (Homo sapiens, UniProt P01116, G12C); assay: Immunofluorescence and high content imaging; type: cell-based; settings: treatment for 16 hours
T1 construct: Immunoprecipitation of alkylated and un-alkylated KRas^G12C in H1171 KRAS^G12C mutant cancer cells; endogenous in cells; host or cells: H1171 (HCC1171) KRAS G12C mutant cancer cells
Procedure: Immunofluorescence and High Content Imaging Cells (20000 to 40000 cells per well depending on the cell line) were seeded into Poly-L-Lysine Coated 96-well plates (Cell Carrier Ultra; Perkin Elmer) and supplemented with complete medium (RPMI with 2% L-Glutamine and 10% FBS). The next day, cells were treated with KRas^G12C inhibitors at indicated concentrations and incubated for the indicated length of time. At the end of treatment, cells were washed twice with cold 1×PBS, fixed with 3% paraformaldehyde for 20 minutes at room temperature, washed for 10 minutes with 1×PBS, and the PFA was quenched with 50 mM NH4Cl for 10 minutes at room temperature. Cells were washed again with 1×PBS twice for 5 minutes, then permeabilized with 1× Perm/Wash Buffer (BD, Fisher Scientific) for 20 minutes at room temperature. Cells were then incubated with primary antibody diluted in Perm/Wash buffer at indicated concentration for 2 hours at room temperature. Cells were then washed three times with Perm/Wash buffer for 10 minutes each, and the incubated with conjugated fluorescence secondary antibody for 20 to 60 minutes (Alexa488 anti-human and Alexa647 anti-rabbit or anti-rat at 1:500 from Jackson ImmunoResearch Laboratories Inc.) 100 ml of 300 nM DAPI was added to each well for 15 minutes and then cells were washed twice with Perm/Wash buffer, and once with 1×PBS prior to imaging. […]

Row | Structure (SMILES) | affinity of SWII covalent molecules in the presence versus absence of 2H11 anti-KRas antibody [1] | alkylation of KRas^G12C by IF and immunoblot analysis [2]
1 | C=CC(=O)N1CCN(c2ncnc3c(F)c(-c4c(O)cccc4F)c(Cl)cc23)CC1 (atropisomer, axis not shown) [ARS-1620, (R)-1-(4-(6-chloro-8-fluoro-7-(2-fluoro-6-hydroxyphenyl)quinazolin-4-yl)piperazin-1-yl)prop-2-en-1-one] | greatly enhanced | almost complete alkylation
2 | C=CC(=O)N1CCN(c2ncnc3cc(-c4c(C)ccc5[nH]ncc45)c(Cl)cc23)CC1 (atropisomer, axis not shown) [GNE-1952, (R)-1-(4-(6-chloro-7-(5-methyl-TH-indazol-4-yl)quinazolin-4-yl)piperazin-1-yl)prop-2-en-1-one] | greatly enhanced | 
3 | C=CC(=O)N1CC(N2CCN(C(=O)CNc3cc(C4(C)CC4)c(Cl)cc3O)CC2)C1 [ARS-853, 1-(3-(4-((4-chloro-2-hydroxy-5-(1-methylcyclopropyl)phenyl)glycyl)piperazin-1-yl)azetidin-1-yl)prop-2-en-1-one] | greatly enhanced | 
